Key:
IGF-1R = molecular target: T1, IGF-1R (Homo sapiens, UniProt P08069); assay: Biochemical assay for inhibitors of IGF-1R kinase activity
T1 construct: amino acid residues 960-1367 of precursor protein; made in house; host or cells: H5 insect cells (baculovirus; virus generated in Sf21)
Procedure: Preparation of IGF-1R for Use in Biochemical Assay
Human cDNA was used as template for amplification by polymerase chain reaction (PCR) of the predicted cytoplasmic portion of IGF-1R (amino acid residues 960-1367 of precursor protein; see NCBI Entrez Protein Accession #P08069) which includes the entire kinase domain. PCR was conducted using the forward primer sequence
Biochemical Assay for Inhibitors of IGF-1R Kinase Activity
The inhibitory activity of putative kinase inhibitors and the potency of selected compounds were determined using a trans-phosphorylation assay.
A specific substrate was incubated with the kinase in appropriate buffer conditions in the presence of ATP traced with ^33P-γ-ATP (gamma phosphate-labeled, Redivue™ Code Number AH9968, 1000-3000Ci/mmole, Amersham Biosciences Piscataway, N.J., USA), optimal cofactors and test compound.
At the end of the phosphorylation reaction, more than 98% cold and radioactive ATP were captured by an excess of Dowex ion exchange resin. The resin was allowed to settle to the bottom of reaction wells by gravity. Supernatant, containing substrate peptide, was subsequently withdrawn and transferred into a counting plate, and radioactivity (corresponding to phosphate incorporated into peptide) was evaluated by β-counting.
Kinase buffer was composed of 50 mM HEPES pH 7.9 containing 3 mM MnCl2, 1 mM DTT, 3 microM Na3VO4, and 0.2 mg/mL BSA. 3× KB is buffer of the same composition and pH as KB, but with three times the concentration of each component.
Prior to starting the kinase inhibition assay, IGF-1R was pre-phosphorylated in order to linearize reaction kinetics. To achieve this, the desired total quantity of enzyme was prepared at an enzyme concentration of 360 nM in KB containing 100 microM ATP, and this preparation was incubated for 30 min at 28° C. 3× Enzyme Mix was obtained by diluting this preactivated enzyme 20-fold in 3× KB. […]

JAK2 = molecular target: T2, JAK2 (Homo sapiens, UniProt O60674); assay: Biochemical assay for inhibitors of JAK2 kinase activity
T2 construct: The assay has been performed using the commercially available JAK2 kinase domain; purchased Invitrogen, Eugene, Oreg
T2 sequence (O60674 849-1124 limits assumed): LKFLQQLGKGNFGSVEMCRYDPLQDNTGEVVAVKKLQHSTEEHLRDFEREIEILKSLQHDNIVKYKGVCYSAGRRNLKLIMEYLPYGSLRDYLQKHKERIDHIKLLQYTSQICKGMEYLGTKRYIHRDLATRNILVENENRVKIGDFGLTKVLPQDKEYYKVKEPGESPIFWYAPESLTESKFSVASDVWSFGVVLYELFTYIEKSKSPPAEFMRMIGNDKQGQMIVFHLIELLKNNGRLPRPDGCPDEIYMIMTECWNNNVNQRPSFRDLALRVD
Description: Biochemical Assay for Inhibitors of JAK2 Kinase Activity
General Principle—A specific JAK2 peptide substrate is trans-phosphorylated by JAK2 kinase in the presence of ATP traced with ^33P-γ-ATP. At the end of the phosphorylation reaction, 98% of the cold and radioactive ATP is captured by an excess of dowex ion exchange resin that eventually settles by gravity to the bottom of the reaction plate. The supernatant is subsequently withdrawn and transferred into a counting plate that is then evaluated by β-counting.
JAK2 Kinase Buffer (KB—Kinase buffer was composed of 50 mM HEPES pH 7.5 containing 10 mM MgCl2, 2.5 mM DTT, 10 microM Na3VO4, and 0.2 mg/mL BSA. 3× KB is buffer of the same composition and pH as KB, but with three times the concentration of each component.
Assay conditions—The JAK2 kinase assay was run with a final enzyme concentration of 1 nM, in the presence of 60 microM ATP, 3 nM 33P-γ-ATP and 64 microM of substrate Jaktide (Aminoacid sequence: LPLDKDYYVVREPGQ). The Jaktide was purchased from American Peptide Company (Sunnyvale, Calif.).
Compound Dilution—For IC50 determination, test compounds are received as a 1 mM solution in 100% DMSO, distributed into 96 well plates: compounds are then plated into the first column of a microtiter plate (A1 to G1), 100 μl/well. […]
Another mixing cycle is performed after all the plates are stopped, this time using normal tips: the plates are then allowed to rest for about one hour in order to maximize ATP capture. At this point, 27 μl of the supernatant are transferred into 384-Optiplates (Perkin-Elmer), with 50 μl of Microscint 40 (Perkin-Elmer); after 5 min of orbital shaking the plates are read on a Perkin-Elmer Top Count radioactivity counter.
Data Fitting—Data are analyzed by an internally customized version of the SW package “Assay Explorer” that provides sigmoidal fitting of the ten-dilutions curves for IC50 determination in the secondary assays/hit confirmation routines.

ALK = molecular target: T3, ALK (Homo sapiens, UniProt Q9UM73); assay: Biochemical assay for inhibitors of ALK kinase activity
T3 construct: made in house; host or cells: Sf21 insect cells (baculovirus)
T3 sequence (Q9UM73 1060-1620): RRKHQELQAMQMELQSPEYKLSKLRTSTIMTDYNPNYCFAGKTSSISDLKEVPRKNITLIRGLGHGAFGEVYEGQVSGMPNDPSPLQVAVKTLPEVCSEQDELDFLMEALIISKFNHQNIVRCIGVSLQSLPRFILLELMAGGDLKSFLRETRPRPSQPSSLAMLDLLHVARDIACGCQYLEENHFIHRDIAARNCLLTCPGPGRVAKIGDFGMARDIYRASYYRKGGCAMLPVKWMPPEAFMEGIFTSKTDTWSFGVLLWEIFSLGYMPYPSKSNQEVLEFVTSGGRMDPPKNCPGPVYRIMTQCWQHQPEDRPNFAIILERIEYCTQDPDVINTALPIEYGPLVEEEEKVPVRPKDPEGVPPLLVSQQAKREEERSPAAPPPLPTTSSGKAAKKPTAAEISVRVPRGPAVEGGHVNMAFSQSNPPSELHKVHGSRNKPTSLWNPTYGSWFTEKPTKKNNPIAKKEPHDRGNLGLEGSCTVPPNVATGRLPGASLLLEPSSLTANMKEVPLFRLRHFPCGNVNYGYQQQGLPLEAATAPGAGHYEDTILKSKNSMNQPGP
Description: Preparation of ALK Cytoplasmic Domain for Use in Biochemical Assay
ALK cytoplasmic domain, corresponding to the residue 1060-1620 (the numbers of the amino acid residues refer to the Genbank accession number NP 004295.2) was PCR amplified from a human testis cDNA library.
For cloning purposes, the oligonucleotides included attB sites in order to obtain an attB-flanked PCR product suitable for cloning using the Gateway technology (Invitrogen). Furthermore, for purification purposes, forward primer included a PreScission cleavage site (Amersham Biosciences). The resulting PCR product was cloned in the baculovirus expression vector pVL1393 (Invitrogen) Gateway-modified. For expression and purification purpose, a GST tag was added N-terminal to the ALK cytoplasmic domain. Cloning was performed according to the protocols described in the Gateway manual (Invitrogen).
Biochemical Assay for Inhibitors of ALK Kinase Activity
ALK enzyme needs pre-activation in order to linearize reaction kinetics.
Kinase buffer was composed of 50 mM HEPES pH 7.5 containing 1 mM MnCl2, 5 mM MgCl2, 1 mM DTT, 3 microM Na3VO4, and 0.2 mg/mL BSA. 3× KB is buffer of the same composition and pH as KB, but with three times the concentration of each component.
The kinase assay was run with a final enzyme concentration of 20 nM, in the presence of 8 microM ATP, 1 nM ^33P-γ-ATP and 2 microM MBP. The MPB was purchased from Sigma-Aldrich, St. Louis, Mo., USA.

T1 sequence (P08069 960-1367): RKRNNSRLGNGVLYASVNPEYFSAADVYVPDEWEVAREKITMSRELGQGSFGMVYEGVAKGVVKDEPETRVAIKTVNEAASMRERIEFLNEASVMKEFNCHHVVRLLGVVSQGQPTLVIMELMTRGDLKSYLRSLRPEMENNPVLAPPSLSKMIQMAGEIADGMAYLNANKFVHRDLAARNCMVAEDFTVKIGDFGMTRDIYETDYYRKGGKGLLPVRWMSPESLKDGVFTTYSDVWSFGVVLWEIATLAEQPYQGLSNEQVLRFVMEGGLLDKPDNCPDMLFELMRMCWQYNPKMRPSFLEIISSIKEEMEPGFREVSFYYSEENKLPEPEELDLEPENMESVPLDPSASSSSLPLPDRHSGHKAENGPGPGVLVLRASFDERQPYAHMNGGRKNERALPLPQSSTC

SMILES | IC50 (IGF-1R) [µM] | IC50 (JAK2) [µM] | IC50 (ALK) [µM]
CN1CCN(c2ccc(C(=O)Nc3n[nH]c4ccc(OCc5cc(F)cc(F)c5)cc34)c(NC3CCOCC3)c2)CC1 [Cpd. 8, N-{5-[(3,5-difluorobenzyl)oxy]-1H-indazol-3-yl}-4-(4-methylpiperazin-1-yl)-2-(tetrahydro-2H-pyran-4-ylamino)benzamide] | 0.14 | 0.02 | 0.02
CN1CCN(c2ccc(C(=O)Nc3n[nH]c4ccc(OCc5cc(F)cc(F)c5)cc34)c(NCCF)c2)CC1 [Cpd. 36, N-{5-[(3,5-difluorobenzyl)oxy]-1H-indazol-3-yl}-2-[(2-fluoroethyl)amino]-4-(4-methylpiperazin-1-yl)benzamide] | 0.2 | 0.01 | 0.01
O=C(Nc1n[nH]c2ccc(OCc3cc(F)cc(F)c3)cc12)c1ccccc1 [Ref. compound, reference compound] | > 10 | 0.22 | 1.87
